# Test results from article PMC12128972, “TYRA-300, an FGFR3-selective inhibitor, promotes bone growth in two FGFR3-driven models of chondrodysplasia” (JCI Insight, 2025).
# “And” between values parts separate entries of the source, which are not always exact repeats. Equal entries are not always repeated.
# Tested on: wild-type C57BL/6J mice
# Test: Wild-type mouse growth velocity study
# Type: in vivo
# Parameters: nasoanal length, individual mice: unit not given here
# Settings: for femur length by calipers, individual mice / tibia length by calipers, individual mice: final day of treatment (8 weeks of age), in mm (unit assumed); for femurs longer than vehicle / tibias longer than vehicle: 4 weeks of treatment
# Description: To determine the in vivo effect of FGFR3 inhibition under normal physiologic conditions, TYRA-300 was tested in a growth velocity assay in wild-type mice ([32]). In this study, wild-type C57BL/6J mice were dosed orally with TYRA-300 once daily from 4 to 8 weeks of age. […] Based on the doses evaluated for infigratinib in oncology and ACH, a lower dose was thought to be more appropriate for long-term treatment of pediatric growth–related conditions. We therefore initially explored doses in the 8 to 14 mg/kg range in this model. […] Specifically, after treatment with 12 mg/kg TYRA-300, the tibias were on average 3.9% longer than the tibias of mice that received treatment with vehicle, and the femurs were on average 5.0% longer after treatment; additionally, with 14 mg/kg TYRA-300, the tibias were 6.4% longer and the femurs were 8.2% longer. There was no difference in body weight among the treatment groups (data not shown).
# At 21 days of age, female C57BL/6J mice (The Jackson Laboratory) were subject to nasoanal length and nasotail length measurement while under anesthesia. Tail length was calculated by subtracting nasoanal length from nasotail length. Body weights were also recorded. One week later, at 28 days of age, nasoanal lengths and body weights were measured again and mice were randomized to treatment groups of 12 mice per group according to nasoanal length. TYRA-300 was dissolved in 30% hydroxypropyl-β-cyclodextrin for administration by oral gavage. Mice were dosed orally with TYRA-300 or vehicle control once daily (QD) for 4 weeks, and nasoanal lengths and body weights were monitored once weekly, along with daily clinical observations. Mouse tibias and femurs were collected and measured with calipers at the end of the study.
# [1] = 12 mg/kg oral daily from week 4, week 3 of age (before treatment)
# [2] = 12 mg/kg oral daily from week 4, week 4 of age (start of treatment)
# [3] = 12 mg/kg oral daily from week 4, week 5 of age
# [4] = 12 mg/kg oral daily from week 4, week 6 of age
# [5] = 12 mg/kg oral daily from week 4, week 7 of age
# [6] = 12 mg/kg oral daily from week 4, week 8 of age
# [7] = 14 mg/kg oral daily from week 4, week 3 of age (before treatment)
# [8] = 14 mg/kg oral daily from week 4, week 4 of age (start of treatment)
smiles,measurement,setting,value
C[C@@H](Oc1ccc2[nH]nc(-c3ccc(N4CC5(C4)CN(S(C)(=O)=O)C5)nc3)c2c1)c1c(Cl)cncc1Cl [TYRA-300],nasoanal length and tibia and femur length vs vehicle,"8 mg/kg and 10 mg/kg, data not shown, P < 0.05",significant increases
same,tail length and tibia and femur length vs vehicle,"12 mg/kg and 14 mg/kg oral once daily, 4 weeks",increased significantly and dose-dependently
same,"nasoanal length, individual mice",[1],6.5 and 7.5 (2×) and 7.3 and 7 (3×) and 6.8 (2×) and 6.2 and 7.2 and 6
same,"tail length, individual mice",[1],5.7 and 6.3 and 6 (2×) and 6.2 and 5.6 and 5.5 and 6.4 and 6.6 and 5.9 and 5.3 and 5.8
same,"nasoanal length, individual mice",[2],7.7 (3×) and 8.2 and 7.8 (3×) and 8 (2×) and 7.2 and 8.3 and 7.3
same,"tail length, individual mice",[2],5.9 and 7.2 (2×) and 6.9 (2×) and 6.7 and 6.8 and 6.3 and 6.4 (2×) and 5.7 and 6.5
same,"nasoanal length, individual mice",[3],8.2 and 8.6 (3×) and 8.5 (2×) and 8.7 and 8.3 (3×) and 9 and 7.7
same,"tail length, individual mice",[3],6.8 and 7.2 (3×) and 7.3 (2×) and 7.1 (2×) and 6.7 and 7.4 and 7.8 and 6.5
same,"nasoanal length, individual mice",[4],8.6 (2×) and 8.8 (2×) and 8.7 (3×) and 9.2 and 9.1 and 9 and 9.3 and 8.4
same,"tail length, individual mice",[4],7.3 and 7.8 (2×) and 7.9 and 7.7 (3×) and 7.6 (2×) and 8 and 8.2 and 7
same,"nasoanal length, individual mice",[5],8.8 and 9.1 (2×) and 9 (3×) and 9.4 and 9.3 and 9.5 and 10 and 9.2 and 8.7
same,"tail length, individual mice",[5],7.9 (2×) and 8 (3×) and 8.2 and 7.7 (2×) and 8.3 and 8.5 and 7.3 and 8.1
same,"nasoanal length, individual mice",[6],9.2 (3×) and 9.3 (5×) and 9.4 and 9.5 and 10 and 8.8
same,"tail length, individual mice",[6],7.8 and 8.2 and 7.9 and 8.1 (4×) and 8.3 and 8 and 8.5 and 8.6 and 7.5
same,"femur length by calipers, individual mice",12 mg/kg oral daily,13.78 and 13.37 and 14.79 and 13.97 and 13.86 and 12.93 and 14.23 and 13.91 and 13.8 and 13.51 and 13.98
same,"tibia length by calipers, individual mice",12 mg/kg oral daily,15.08 and 16.34 and 16.3 and 17.19 and 16.6 and 15.75 and 16.27 and 16.06 and 16.41 and 16.46 and 17
same,femurs longer than vehicle,12 mg/kg oral once daily,5.0%
same,tibias longer than vehicle,12 mg/kg oral once daily,3.9%
same,"nasoanal length, individual mice",[7],6.6 and 7.6 (2×) and 7.3 (2×) and 6.7 and 6.3 and 7.1 and 7.2 (2×) and 6.8 and 6.9
same,"tail length, individual mice",[7],5.5 (2×) and 6 (2×) and 6.4 (2×) and 6.1 and 5.3 and 5.7 and 5.6 (3×)
same,"nasoanal length, individual mice",[8],7.7 (2×) and 8.2 (2×) and 7.8 (4×) and 8 (2×) and 7.3 and 7.2
same,"tail length, individual mice",[8],6.3 and 6.9 (2×) and 7 (2×) and 6.8 and 6 (2×) and 6.4 (2×) and 6.6 and 6.7
same,"nasoanal length, individual mice","14 mg/kg oral daily from week 4, week 5 of age",8.7 (2×) and 8.5 and 8.6
same,"tail length, individual mice","14 mg/kg oral daily from week 4, week 5 of age, in cm (unit assumed)",7 and 7.6 and 7.4 and 7.5
same,"femur length by calipers, individual mice",14 mg/kg oral daily,14.47 and 14.13 and 13.58 and 13.93 and 13.04 and 14.9 and 14.56 and 14.74 and 14.08 and 15.12 and 14.91 and 13.6
same,"tibia length by calipers, individual mice",14 mg/kg oral daily,16.57 and 16.39 and 16.89 and 16.61 and 16.95 and 17.24 and 16.1 and 17.47 and 16.69 and 16.27
same,increase in nasoanal length vs vehicle,"14 mg/kg oral once daily, 4 to 8 weeks of age",7.3%
same,femurs longer than vehicle,14 mg/kg oral once daily,8.2%
same,tibias longer than vehicle,14 mg/kg oral once daily,6.4%
same,body weight among the treatment groups,"oral once daily, data not shown",no difference
